Laboratory results: doi:10.1101/2023.03.31.535138v1 (biorxiv, 2023)

Target: T1, NudC (Escherichia coli, UniProt P32664)
T1 sequence (P32664 1-257): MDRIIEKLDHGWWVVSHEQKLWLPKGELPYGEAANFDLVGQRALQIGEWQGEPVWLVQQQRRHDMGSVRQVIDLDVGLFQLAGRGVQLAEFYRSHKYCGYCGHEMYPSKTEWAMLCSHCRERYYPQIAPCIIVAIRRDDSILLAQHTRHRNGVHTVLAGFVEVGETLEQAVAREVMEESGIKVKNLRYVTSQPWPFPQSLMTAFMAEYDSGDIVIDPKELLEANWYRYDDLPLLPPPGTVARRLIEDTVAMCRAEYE
Assay: in vitro de-capping of NAD-RNA, gel assay, NudC activity plotted against ppGpp
Format: biochemical

Nc1nc2c(ncn2[C@@H]2O[C@H](COP(=O)(O)OP(=O)(O)O)[C@@H](OP(=O)(O)OP(=O)(O)O)[C@H]2O)c(=O)[nH]1 [ppGpp] was tested, and the Ki was roughly 70 µM.
